Measured values reported in patent EP0555116B1, “Compositions based on antiseptics and their applications” (HUTCHINSON, priority 1992, dated 1993).
Values joined by “and” are separate entries in the source; they are usually repeats but may differ in a detail not shown here. Equal entries are not always repeated.

What was measured:
[1] = test system: antigène du virus de l'hépatite B (AgHBs); assay: In vitro degradation of hepatitis B virus antigen (AgHBs): virucide + patient human serum (1/1000); format: biochemical; conditions: Bardac® 0,2 %
Text: I - Action sur la dégradation in vitro de l'antigène du virus de l'hépatite B (AgHBs) du virus de l'hépatite B : virucide + sérum humain de malade (1/1000ème).

[2] = test system: cellules fibroblastiques humaines; assay: Cytotoxicity control of the products on human fibroblast cultures (10 tubes, 3 days); format: cell-based; conditions: pur et dilutions 10^-1 à 10^-3, 0,1 ml dans 1 ml
Text: On réalise des contrôles de cytotoxicité des produits pour les cultures cellulaires utilisées dans les tests, c'est-à-dire les cellules fibroblastiques humaines.
Les cellules sont cultivées en milieu de Dulbecco enrichi en sérum de veau foetal à 10 %; au moment de leur utilisation, les cellules sont lavées et on utilise le même milieu de culture, mais dépourvu de sérum de veau.
Pour chaque produit testé ou chaque composition, on a utilisé 10 tubes de culture cellulaire et après inoculation du produit, les tubes ont été surveillés pendant trois jours.
Chaque produit a été successivement utilisé pur, et aux dilutions 10^-1, 10^-2, 10^-3 et ajouté aux tubes de culture contenant 1 ml de milieu nutritif, sous le volume de 0,1 ml.

[3] = test system: Herpès virus Hominis type 1, souche Bey (HSV1); assay: Immediate virucidal action on HSV1, plaque count on Vero cells; format: cell-based; conditions: Bardac® 0,02 %; 3 boîtes de culture; J4
Description: Il s'agit d'une souche d'Herpès virus Hominis type 1, souche Bey (HSV1), elle est entretenue sur cellules fibroblastiques humaines ou sur cellules KB et a subi un nombre de passages importants, sur l'un ou l'autre type de cellules.
On utilise un lot viral congelé à -80°C après obtention d'un effet cytopathique ayant atteint au moins 80 % des cellules, sans une centrifugation préalable, qui aurait débarrassé l'inoculum de la majorité des débris cellulaires; en effet, il apparaît que l'infectivité du virus disparaît très rapidement lorsqu'il est extracellulaire, et, en conséquence, on est plus près de la réalité de l'infection in vivo lorsqu'on utilise un lot viral dans lequel des virions peuvent encore se trouver dans des débris cellulaires.
Ce lot a été titré, après répartition en aliquots de 0,5 ml, conservés à -80°C, sur cellules fibroblastiques humaines : • . par dilution de 10 en 10 et inoculations de 8 tubes de cultures par dilution : 10^6/ml; • . par inoculation de cultures en boîtes de Pétri (35 mm) et adjonction de sérum anti-HSV1 dans le surnageant pour neutraliser les virions qui pourraient être libérés dans le milieu liquide, permettant ainsi de compter des plages : 100 à 150 unités formant plages par boîte inoculée avec 0,5 ml d'une solution virale diluée à 10^-4. […]

[4] = test system: E. coli ATCC 11229; assay: Growth inhibition test (DGHM, Essai 2, Tables A-C), 72 h at 37°C; non/A/B/C = without or with inactivating substances A, B, C; format: cell-based, Escherichia coli; conditions: for concentration en substance active inhibant la croissance: antiseptique seul
Description: Un autre essai a été réalisé à partir des solutions suivantes : • 100 ml d'une solution à 0,1 % de digluconate de chlorhexidine (pH 6) et • 100 ml d'une solution à 0,1 % de Bardac 22®.
L'activité de ces solutions, seules ou en combinaison a été plus particulièrement testée vis-à-vis de Staphylococcus aureus ATCC 6538, Escherichia coli ATCC 11229 et Candida albicans ATCC 10231.
Les tests ont été réalisés conformément au protocole décrit dans le Chapitre I/2.1 et 2.2 de Richtlinien für die Prüfung und Bewertung chemischer Desinfektionsverfahren der DGHM, Stand 1.1., 1981).
Les Tableaux A, B et C illustrent respectivement l'activité bactéricide et fongicide d'une solution aqueuse à 0,1 % de digluconate de chlorhexidine, d'une solution aqueuse à 0,1 % de Bardac 22® et d'un mélange à part égale des deux composés. Les protocoles dont ces Tableaux illustrent les résultats comprennent une incubation de 72 heures à 37°C et l'utilisation, comme témoins, des substances inactivantes suivantes : A : Tween® 80 3 % + lécithine 0,3 % + cystéine 0,1 %; B : Tween® 80 3 % + saponine 3 % + cystéine 0,1 % + histidine 0,1 %; C : Tween® 80 3 % + lécithine 0,3 % + histidine 0,1 % + thiosulfate de sodium 0,5 %.
Dans ces Tableaux, le signe "+" indique une croissance et le signe "-" l'absence de croissance.

Structure (SMILES) | croissance ([4]; Conc. 0,1 % (vol/vol), A) | croissance ([4]; Conc. 0,1 % (vol/vol), B) | croissance ([4]; Conc. 0,1 % (vol/vol), C) | croissance ([4]; Conc. 0,1 % (vol/vol), non) | croissance ([4]; Conc. 0,05 % (vol/vol), A) | croissance ([4]; Conc. 0,5 % (vol/vol), A) | croissance ([4]; Conc. 0,05 % (vol/vol), B) | croissance ([4]; Conc. 0,5 % (vol/vol), B) | croissance ([4]; Conc. 0,05 % (vol/vol), C) | croissance ([4]; Conc. 0,5 % (vol/vol), C) | croissance ([4]; Conc. 0,05 % (vol/vol), non) | croissance ([4]; Conc. 0,5 % (vol/vol), non) | croissance ([4]; Conc. 1,0 % (vol/vol), A) | croissance ([4]; Conc. 1,0 % (vol/vol), B) | croissance ([4]; Conc. 1,0 % (vol/vol), C) | croissance ([4]; Conc. 1,0 % (vol/vol), non) | croissance ([4]; Conc. 0,00625 % (vol/vol), A) | croissance ([4]; Conc. 0,00625 % (vol/vol), B) | croissance ([4]; Conc. 0,00625 % (vol/vol), C) | croissance ([4]; Conc. 0,00625 % (vol/vol), non) | other results
CCCCCCCCCC[N+](C)(C)CCCCCCCCCC [Bardac®, chlorure de didécyldiméthylammonium] | + | + | + | + | + | + | + | + | + | + | + | - | + | + | + | - | + | + | + | + | AgHBs résiduel (ratio) [1]: 1,35; toxicité pour les cultures cellulaires ([2]; solution à 0,04 %): non toxique à la dilution 10^-3; Nombre d'unités formant plage par millilitre de virus dilué à 10^-4 [3]: 30/125/45 and 26/17/20; croissance ([4]; Conc. 0,0125 % (vol/vol), A): +; croissance ([4]; Conc. 0,0125 % (vol/vol), B): +; croissance ([4]; Conc. 0,0125 % (vol/vol), C): +; croissance ([4]; Conc. 0,0125 % (vol/vol), non): +; croissance ([4]; Conc. 0,025 % (vol/vol), A): +; croissance ([4]; Conc. 0,025 % (vol/vol), B): +; croissance ([4]; Conc. 0,025 % (vol/vol), C): +; croissance ([4]; Conc. 0,025 % (vol/vol), non): +; concentration en substance active inhibant la croissance [4]: 0,0005%
[H]/N=C(\N/C(=N/[H])NCCCCCCNC(=N)NC(=N)Nc1ccc(Cl)cc1)Nc1ccc(Cl)cc1 [Chlorhexidine, digluconate de chlorhexidine, reference compound] | + | + | + | + | + | + | + | + | + | + | + | - | + | + | + | - | + | + | + | + | toxicité pour les cultures cellulaires ([2]; solution à 0,05 %): aucune toxicité; croissance ([4]; Conc. 0,0125 % (vol/vol), A): +; croissance ([4]; Conc. 0,0125 % (vol/vol), B): +; croissance ([4]; Conc. 0,0125 % (vol/vol), C): +; croissance ([4]; Conc. 0,0125 % (vol/vol), non): +; croissance ([4]; Conc. 0,025 % (vol/vol), A): +; croissance ([4]; Conc. 0,025 % (vol/vol), B): +; croissance ([4]; Conc. 0,025 % (vol/vol), C): +; croissance ([4]; Conc. 0,025 % (vol/vol), non): +; concentration en substance active inhibant la croissance [4]: 0,0005%
